Experimental data from US20220330549A1, “USE OF N-BENZYLBENZAMIDE-BASED COMPOUND AS HERBICIDE” (Northwest A&F University, priority 2020, published 2022).

Tests used:
Type in all cases: in vivo
Piemarker [1] = assay: Herbicidal activity test for indoor post-emergence spraying on stems and leaves; parameters: key: grade level by weed remaining vs blank control, e.g. 5 = 10.1-15%; details: 150 g a.i./ha, visual inspection 21 days after treatment
Outline: (§1)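 Visual inspection at 21 days after treatment gave a level rating, each level defined as a percentage band of the weed remaining in the blank control area. Plants were sprayed on stems and leaves after emergence, following NY/T 1155.4-2006.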

Barnyard grass [2] = assay: as above; parameters: key: grade level by weed remaining vs blank control, e.g. 5 = 10.1-15%; details: 150 g a.i./ha, visual inspection 21 days after treatment
Outline: as §1

Humulus scandens [3] = assay: as above; parameters: key: grade level by weed remaining vs blank control, e.g. 5 = 10.1-15%; details: 150 g a.i./ha, visual inspection 21 days after treatment
Outline: as §1

Digitaria sanguinalis [4] = assay: as above; parameters: key: grade level by weed remaining vs blank control, e.g. 5 = 10.1-15%; details: 150 g a.i./ha, visual inspection 21 days after treatment
Outline: as §1

Amaranthus retroflexus [5] = assay: as above; parameters: key: grade level by weed remaining vs blank control, e.g. 5 = 10.1-15%; details: 150 g a.i./ha, visual inspection 21 days after treatment
Outline: as §1

green bristlegrass [6] = assay: as above; parameters: key: grade level by weed remaining vs blank control, e.g. 5 = 10.1-15%; details: 150 g a.i./ha, visual inspection 21 days after treatment
Outline: as §1

Digitaria sanguinalis [7] = assay: Herbicidal activity test for indoor pre-emergence soil treatment; parameters: key: 1-9 levels; higher = more weed remaining vs blank control; details: 150 g a.i./ha, visual inspection 21 days after treatment
Outline: (§2)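 Compounds were formulated as 10% emulsifiable concentrates and sprayed onto the soil 24 h after sowing, at 150 g(a.i.)/ha. Soil was sandy loam (≤2% organic matter), with seeds under 0.5–2.0 cm cover, per NY/T 1155.3-2006. Visual 1–9 ratings relative to blank control were made after 21 days.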

Amaranthus retroflexus [8] = assay: as above; parameters: key: 1-9 levels; higher = more weed remaining vs blank control; details: 150 g a.i./ha, visual inspection 21 days after treatment
Outline: as §2

Broadleaf weed = assay: Post-emergence herbicidal activity test in a paddy field; parameters: key: level scale; higher level = more weed left vs blank control; details: 150 g a.i./ha (penoxsulam control 250 g(a.i.)/h)
Outline: (§3)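 Efficacy was visually estimated 15 and 30 days after spraying, grading weed coverage relative to an untreated neighbouring plot (level 2 = 0 to 2.5%, level 9 = 67.6 to 100%). Treatments were 150 g(a.i.)/ha from 10% emulsifiable concentrates applied at the 4-5 leaf rice stage, four repeats of 50 m^2 each.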

Gramineae = assay: as above; parameters: key: level scale; higher level = more weed left vs blank control; details: 150 g a.i./ha (penoxsulam control 250 g(a.i.)/h)
Outline: as §3

Cyperaceae = assay: as above; parameters: key: level scale; higher level = more weed left vs blank control; details: 150 g a.i./ha (penoxsulam control 250 g(a.i.)/h)
Outline: as §3

Piemarker [9] = assay: Herbicidal activity test for indoor pre-emergence soil treatment; parameters: key: level 1-9; higher = more weed remaining vs blank control; details: 150 g a.i./ha, visual inspection 21 days after treatment
Outline: as §2

Barnyard grass [10] = assay: as above; parameters: key: level 1-9; higher = more weed remaining vs blank control; details: 150 g a.i./ha, visual inspection 21 days after treatment
Outline: as §2

green bristlegrass [11] = assay: as above; parameters: key: level 1-9; higher = more weed remaining vs blank control; details: 150 g a.i./ha, visual inspection 21 days after treatment
Outline: as §2

Humulus scandens [12] = assay: as above; details: 150 g a.i./ha, visual inspection 21 days after treatment
Outline: as §2

Acalypha australis = assay: Field test for weed control in a corn field; details: 150 g a.i./ha, after treatment
Outline: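 Post-emergence field trial in a corn field following GB/T 17980.42-2000. Test compounds were formulated as 10% emulsifiable concentrates, diluted in water, and sprayed at 150 g(a.i.)/ha when corn had 2 to 5 leaves, with 4 replicates on 20 m^2 plots. Mesotrione 25% oil dispersion served as the control agent. Weed control was scored on a 1-9 scale.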

nutgrass flatsedge = assay: Field test for weed control in a corn field; details: 150 g a.i./ha, after treatment
Outline: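 A corn field efficacy trial following GB/T 17980.42-2000 assessed post-emergence control of nutgrass flatsedge. Test compounds were formulated as 10% emulsifiable concentrates, diluted in water, and sprayed at 150 g(a.i.)/ha when the corn had 2 to 5 leaves. Each treatment had 4 replicates on 20 m^2 plots. Herbicidal activity was graded on a 1-9 scale by damage symptoms and severity.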

Portulaca oleracea = assay: Field test for weed control in a corn field; details: 150 g a.i./ha, after treatment
Outline: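 Field efficacy trial in corn following GB/T 17980.42-2000. Test compounds were prepared as 10% emulsifiable concentrates, diluted in water, and sprayed at 150 g(a.i.)/ha when corn had 2 to 5 leaves after sowing. Plots were 20 m^2 with 4 replicates per treatment. Herbicidal activity was scored on a 1-9 scale from weed damage symptoms and severity.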

goosegrass = assay: Field test for weed control in a corn field; details: 150 g a.i./ha, after treatment
Outline: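 Weed control efficacy against goosegrass was tested in a corn field following GB/T 17980.42-2000. Compounds formulated as 10% emulsifiable concentrates were diluted in water and sprayed post-emergence at 150 g(a.i.)/ha when corn had 2 to 5 leaves, with 4 replicates of 20 m^2 plots. Herbicidal activity was rated on a 1-9 scale by damage symptoms and severity.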

Barnyard grass [13] = assay: Field test for weed control in a corn field; details: 150 g a.i./ha, 30 days after treatment
Outline: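 Corn-field efficacy trial following GB/T 17980.42-2000. Test compounds were formulated as 10% emulsifiable concentrates, diluted in water and sprayed post-emergence at 150 g(a.i.)/ha when corn had 2 to 5 leaves. Each treatment was replicated 4 times on 20 m^2 plots. Barnyard grass control was rated on a 1-9 damage scale.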

Digitaria sanguinalis [14] = assay: Field test for weed control in a corn field; details: 150 g a.i./ha, after treatment
Outline: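 Field trial in a corn field following GB/T 17980.42-2000. Test compounds were formulated as 10% emulsifiable concentrates, diluted in water and sprayed post-emergence at 150 g(a.i.)/ha when corn had 2 to 5 leaves, with 4 replicates on 20 m^2 plots. Control of Digitaria sanguinalis was scored on a 1-9 scale based on weed damage relative to the untreated blank area.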

Amaranthus retroflexus [15] = assay: Field test for weed control in a corn field; details: 150 g a.i./ha, 30 days after treatment
Outline: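 Field efficacy trial in a corn field following GB/T 17980.42-2000. Test compounds were formulated as 10% emulsifiable concentrates, diluted in water and sprayed post-emergence when corn had 2 to 5 leaves. Each treatment covered 20 m^2 with 4 replicates. A 25% mesotrione oil dispersion served as control. Damage to Amaranthus retroflexus was rated on a 1-9 scale against untreated blank plots.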

Solanum nigrum = assay: Field test for weed control in a corn field; details: 150 g a.i./ha, 30 days after treatment
Outline: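 Post-emergence weed control was tested in a corn field following GB/T 17980.42-2000. Compounds were made into 10% emulsifiable concentrates, diluted in water and sprayed at 150 g(a.i.)/ha when corn had 2 to 5 leaves after sowing, in 20 m^2 plots with 4 replicates. Effects on Solanum nigrum were graded on a 1-9 scale relative to the blank control area.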

green bristlegrass [16] = assay: Field test for weed control in a corn field; details: 150 g a.i./ha, after treatment
Outline: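 Post-emergence weed control was tested in a corn field following GB/T 17980.42-2000. When the corn had 2 leaves to 5 leaves after sowing, 10% emulsifiable concentrates diluted in water were sprayed at 150 g(a.i.)/ha on 20 m^2 plots, four replicates per treatment. Effects on green bristlegrass were scored on a 1-9 damage scale relative to the blank control area.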

Chenopodium album = assay: Field test for weed control in a corn field; details: 150 g a.i./ha, after treatment
Outline: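 A corn-field efficacy trial following GB/T 17980.42-2000 tested post-emergence control of Chenopodium album. Test compounds formulated as 10% emulsifiable concentrates were diluted in water and sprayed at 150 g(a.i.)/ha when the corn had 2 leaves to 5 leaves, on 20 m^2 plots with 4 replicates. Herbicidal activity was rated on a 1-9 scale by damage symptoms and severity.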

Convolvulus arvensis = assay: Field test for weed control in a corn field; details: 150 g a.i./ha, after treatment
Outline: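 Field trial of weed control against Convolvulus arvensis in corn, run following GB/T 17980.42-2000. Test agents were formulated as 10% emulsifiable concentrates and sprayed in water at 150 g(a.i.)/ha when corn plants had 2 to 5 leaves. Each treatment was replicated 4 times on 20 m^2 plots, and 25% mesotrione oil dispersion served as the control agent.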

| Compound | Herbicidal Activity Piemarker (Piemarker [1]) | Herbicidal Activity Barnyard grass (Barnyard grass [2]) | Herbicidal Activity Humulus scandens (Humulus scandens [3]) | Herbicidal Activity Digitaria sanguinalis (Digitaria sanguinalis [4]) | Herbicidal Activity Amaranthus retroflexus (Amaranthus retroflexus [5]) | Herbicidal Activity Green bristlegrass (green bristlegrass [6]) | Herbicidal Activity Digitaria sanguinalis (Digitaria sanguinalis [7]) | Herbicidal Activity Amaranthus retroflexus (Amaranthus retroflexus [8]) | Herbicidal activity 15 days after treatment Broadleaf weed (Broadleaf weed) | Herbicidal activity 30 days after treatment Broadleaf weed (Broadleaf weed) | Herbicidal activity 15 days after treatment Gramineae (Gramineae) | Herbicidal activity 30 days after treatment Gramineae (Gramineae) | Herbicidal activity 15 days after treatment Cyperaceae (Cyperaceae) | Herbicidal activity 30 days after treatment Cyperaceae (Cyperaceae) | Herbicidal Activity Piemarker (Piemarker [9]) | Herbicidal Activity Barnyard grass (Barnyard grass [10]) | Herbicidal Activity Green bristlegrass (green bristlegrass [11]) | Herbicidal Activity Humulus scandens (Humulus scandens [12]) | Post-emergence weed control effect, Acalypha australis (Acalypha australis) | Post-emergence weed control effect, Nutgrass flatsedge (nutgrass flatsedge) | further results |
| --- | --- | --- | --- | --- | --- | --- | --- | --- | --- | --- | --- | --- | --- | --- | --- | --- | --- | --- | --- | --- | --- |
| COc1ccc(OC)c(C(=O)NCc2cc(Cl)cc(Cl)c2)c1 [Compound A29] | 1 | 1 | 1 | 1 | 1 | 1 | 2 (equivalent to 0 to 2.5% of the weed in the blank control area) | 1 | 1 | 1 | 2 (equivalent to 0 to 2.5% of the weed in the blank control area) | 1 | 1 | 2 (equivalent to 0 to 2.5% of the weed in the blank control area) | 1 | 1 | 1 | 2 (equivalent to 0 to 2.5% of the weed in the blank control area) | 1 | 2 (equivalent to 0 to 2.5% of the weed in the blank control area) | Post-emergence weed control effect, Portulaca oleracea (Portulaca oleracea): 1; Post-emergence weed control effect, Goose grass (goosegrass): 2 (equivalent to 0 to 2.5% of the weed in the blank control area); Post-emergence weed control effect, Barnyard grass (Barnyard grass [13]): 1; Post-emergence weed control effect, Digitaria sanguinalis (Digitaria sanguinalis [14]): 2 (equivalent to 0 to 2.5% of the weed in the blank control area); Post-emergence weed control effect, Amaranthus retroflexus (Amaranthus retroflexus [15]): 1; Post-emergence weed control effect, Solanum nigrum (Solanum nigrum): 2 (equivalent to 0 to 2.5% of the weed in the blank control area); Post-emergence weed control effect, Green bristlegrass (green bristlegrass [16]): 2 (equivalent to 0 to 2.5% of the weed in the blank control area); Post-emergence weed control effect, Chenopodium album (Chenopodium album): 1; Post-emergence weed control effect, Convolvulus arvensis (Convolvulus arvensis): 2 (equivalent to 0 to 2.5% of the weed in the blank control area) |
| COc1ncccc1C(=O)NCc1cccc(C)c1 [Compound A85] | 1 | 1 | 1 | 1 | 1 | 1 | 1 | 2 (equivalent to 0 to 2.5% of the weed in the blank control area) | 1 | 1 | 2 (equivalent to 0 to 2.5% of the weed in the blank control area) | 1 | 1 | 1 | 1 | 1 | 1 | 3 (equivalent to 2.6 to 5% of the weed in the blank control area) | 1 | 2 (equivalent to 0 to 2.5% of the weed in the blank control area) | Post-emergence weed control effect, Portulaca oleracea (Portulaca oleracea): 1; Post-emergence weed control effect, Goose grass (goosegrass): 2 (equivalent to 0 to 2.5% of the weed in the blank control area); Post-emergence weed control effect, Barnyard grass (Barnyard grass [13]): 1; Post-emergence weed control effect, Digitaria sanguinalis (Digitaria sanguinalis [14]): 2 (equivalent to 0 to 2.5% of the weed in the blank control area); Post-emergence weed control effect, Amaranthus retroflexus (Amaranthus retroflexus [15]): 1; Post-emergence weed control effect, Solanum nigrum (Solanum nigrum): 2 (equivalent to 0 to 2.5% of the weed in the blank control area); Post-emergence weed control effect, Green bristlegrass (green bristlegrass [16]): 1; Post-emergence weed control effect, Chenopodium album (Chenopodium album): 1; Post-emergence weed control effect, Convolvulus arvensis (Convolvulus arvensis): 1 |
